Source: patent US9181232B2, “Difluoro-hexahydro-cyclopentaoxazinyls and difluoro-hexahydro-benzooxazinyls as BACE1 inhibitors” (Hoffmann-La Roche Inc., priority 2012, dated 2015)

Tests used:
CYP3A4 = biological target: T1, CYP3A4 (Homo sapiens, UniProt P08684); assay: CYP inhibition assay, human liver microsomes, midazolam; assay type: in vitro ADME; conditions: read-out: CYP IC50 3A4
T1 construct: 0.2 mg/ml pooled human liver microsomes; from tissue; host or cells: pooled human liver microsomes
T1 sequence (P08684 whole entry): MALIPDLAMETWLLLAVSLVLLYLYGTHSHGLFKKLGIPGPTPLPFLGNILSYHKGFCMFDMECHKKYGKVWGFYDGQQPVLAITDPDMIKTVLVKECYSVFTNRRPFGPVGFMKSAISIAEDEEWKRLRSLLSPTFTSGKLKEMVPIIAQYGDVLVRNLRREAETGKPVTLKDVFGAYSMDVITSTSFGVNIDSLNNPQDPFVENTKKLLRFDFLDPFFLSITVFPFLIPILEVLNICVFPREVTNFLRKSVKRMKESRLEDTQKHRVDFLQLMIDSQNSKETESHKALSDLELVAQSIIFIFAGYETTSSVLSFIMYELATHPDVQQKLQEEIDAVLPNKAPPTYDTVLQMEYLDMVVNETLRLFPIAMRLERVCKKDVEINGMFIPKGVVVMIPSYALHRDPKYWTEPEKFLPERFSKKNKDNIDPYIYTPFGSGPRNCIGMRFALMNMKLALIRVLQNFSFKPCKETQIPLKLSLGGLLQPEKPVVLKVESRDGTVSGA
Experimental: (§1) Inhibition of cytochromes P450 (CYPs) 2C9, 2D6 and 3A4 was assessed using human liver microsomes and CYP-selective substrate metabolism reactions. 50 μl incubations were made up containing (finally) 0.2 mg/ml pooled human liver microsomes, 5 μM substrate (diclofenac for CYP2C9 [4′hydroxylase], dextromethorphan for CYP2D6 [O-demethylase] or midazolam for CYP3A4 [1′hydroxylase]), 0.25 μL DMSO containing test inhibitor and NADPH regenerating system. Test inhibitor concentrations of 50, 16.7, 5.6, 1.9, 0.6 and 0.2 μM were assessed in singlicate. Incubations were prewarmed to 37° C. for 10 minutes before initiation by addition of NADPH regenerating system. Incubations were quenched after 5 minutes (20 minutes for dextromethorphan) by addition of 50 μl cold acetonitrile containing 20 ng/ml 4-OH-diclofenac-13C6, 20 ng/mL dextrorphan-D3 and 20 ng/mL 1-OH-midazolam-D4. Quenched incubates were stored at −20° C. for at least 1 hour before centrifugation (20,000×g, 20 minutes). Supernatants were removed and diluted 1:1 with water prior to analysis using a RapidFire sample injector system and API4000 mass spectrometer. Peak areas for substrate, metabolite and stable-labelled metabolite standard were determined using MS/MS. The peak area ratios between the metabolite generated by the enzymatic reaction and the internal standard were used in subsequent calculations. The percentage of (DMSO) control activity was calculated for each incubate and IC50 values estimated by non-linear regression. Sulfaphenazole, quinidine or ketoconazole were tested in each CYP2C9, CYP2D6 or CYP3A4 inhibition experiment, respectively, to ensure assay sensitivity and reproducibility. (Validated assays for human cytochrome P450 activities^11)

CYP2C9 = biological target: T2, CYP2C9 (Homo sapiens, UniProt P11712); assay: CYP inhibition assay, human liver microsomes, diclofenac; assay type: in vitro ADME; conditions: read-out: CYP IC50 2C9
T2 construct: 0.2 mg/ml pooled human liver microsomes; from tissue; host or cells: pooled human liver microsomes
T2 sequence (P11712 whole entry): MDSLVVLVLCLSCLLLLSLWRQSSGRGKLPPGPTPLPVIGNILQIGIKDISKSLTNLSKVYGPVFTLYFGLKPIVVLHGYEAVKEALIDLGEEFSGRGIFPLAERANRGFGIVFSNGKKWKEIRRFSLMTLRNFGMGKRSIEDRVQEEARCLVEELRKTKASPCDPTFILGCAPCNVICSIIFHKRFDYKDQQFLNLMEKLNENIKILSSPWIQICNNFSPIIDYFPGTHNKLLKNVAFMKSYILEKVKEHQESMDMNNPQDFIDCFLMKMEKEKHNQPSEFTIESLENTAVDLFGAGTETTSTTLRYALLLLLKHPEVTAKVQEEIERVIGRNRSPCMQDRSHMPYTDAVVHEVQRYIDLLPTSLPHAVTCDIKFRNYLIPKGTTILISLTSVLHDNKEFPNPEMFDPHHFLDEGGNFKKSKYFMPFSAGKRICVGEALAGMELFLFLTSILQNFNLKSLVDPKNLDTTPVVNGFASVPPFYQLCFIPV
Experimental: as §1

[1] = biological target: T3, cathepsin D (from human liver) (Homo sapiens, UniProt P07339); assay: Cathepsin D fluorescent substrate kinetic assay; assay type: biochemical; conditions: pH 5.5
T3 construct: cathepsin D (from human liver, Calbiochem); purchased Calbiochem; host or cells: human liver (tissue-purified)
T3 sequence (P07339 65-162 limits assumed): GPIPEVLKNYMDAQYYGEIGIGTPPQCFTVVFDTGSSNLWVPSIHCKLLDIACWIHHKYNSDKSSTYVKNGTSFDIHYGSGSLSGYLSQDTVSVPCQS
T3 sequence (P07339 169-412 limits assumed): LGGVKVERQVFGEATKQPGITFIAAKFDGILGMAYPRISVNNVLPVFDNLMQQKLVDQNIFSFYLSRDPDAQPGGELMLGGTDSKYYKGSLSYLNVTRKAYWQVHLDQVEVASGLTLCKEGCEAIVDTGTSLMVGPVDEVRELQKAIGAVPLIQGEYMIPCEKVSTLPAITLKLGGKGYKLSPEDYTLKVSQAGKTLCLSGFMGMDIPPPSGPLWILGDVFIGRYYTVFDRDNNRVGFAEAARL
Source text: (§2) The MR121 fluorescence assays described below are based on the fact that MR121 forms a non-fluorescent ground state complex with tryptophan. In solution this formation occurs at millimolar concentrations of tryptophan. The mechanism can be used to design a generic biochemical assay for proteases. A substrate peptide is labeled at the N-terminus with tryptophan and at the C-terminus with the fluorophore MR121 (for cathepsin D the 10 amino acid peptide WTSVLMAAPC-MR121 was used; for cathepsin E, MR121-CKLVFFAEDW was used). In absence of protease activity, the substrates remain intact and the MR121 fluorescence is reduced by the high local Trp-concentration. If the substrates are cleaved by the enzymes the MR121 fluorescence is recovered.
(§3) The fluorescent substrate cathepsin D and cathepsin E kinetic assays were performed at room temperature in 384-well microtiter plates (black with clear flat bottom, non binding surface plates from Corning) in a final volume of 51 μl. The test compounds were serially diluted in DMSO (15 concentrations, 1/3 dilution steps) and 1 μl of diluted compounds were mixed for 10 min with 40 μl of cathepsin D (from human liver, Calbiochem) diluted in assay buffer (100 mM sodium acetate, 0.05% BSA, pH 5.5; final concentration: 200 nM) or with 40 μl of recombinant human cathepsin E (R&D Systems) diluted in assay buffer (100 mM sodium acetate, 0.05% BSA, pH 4.5; final concentration: 0.01 nM). After addition of 10 μl of the cathepsin D substrate WTSVLMAAPC-MR121 diluted in cathepsin D assay buffer (final concentration: 300 nM) or […] cathepsin E substrate MR121-CKLVFFAEDW diluted in cathepsin E assay buffer (final concentration: 300 nM), the plates were strongly shaken for 2 minutes. The enzymatic reaction was followed in a plate: vision reader (Perkin Elmer) (excitation wavelength: 630 nm; emission: 695 nm) for at least 30 minutes in a kinetic measurement detecting an increase of MR121 fluorescence during the reaction time. The slope in the linear range of the kinetic was calculated and the IC50 of the test compounds were determined using a four parameter equation for curve fitting.

in vivo effect = conditions: @ 30 mg/kg p.o.
CYP2D6 = biological target: T4, CYP2D6 (Homo sapiens, UniProt P10635); assay: CYP inhibition assay, human liver microsomes, dextromethorphan; assay type: in vitro ADME; conditions: read-out: CYP IC50 2D6
T4 construct: 0.2 mg/ml pooled human liver microsomes; from tissue; host or cells: pooled human liver microsomes
T4 sequence (P10635 whole entry): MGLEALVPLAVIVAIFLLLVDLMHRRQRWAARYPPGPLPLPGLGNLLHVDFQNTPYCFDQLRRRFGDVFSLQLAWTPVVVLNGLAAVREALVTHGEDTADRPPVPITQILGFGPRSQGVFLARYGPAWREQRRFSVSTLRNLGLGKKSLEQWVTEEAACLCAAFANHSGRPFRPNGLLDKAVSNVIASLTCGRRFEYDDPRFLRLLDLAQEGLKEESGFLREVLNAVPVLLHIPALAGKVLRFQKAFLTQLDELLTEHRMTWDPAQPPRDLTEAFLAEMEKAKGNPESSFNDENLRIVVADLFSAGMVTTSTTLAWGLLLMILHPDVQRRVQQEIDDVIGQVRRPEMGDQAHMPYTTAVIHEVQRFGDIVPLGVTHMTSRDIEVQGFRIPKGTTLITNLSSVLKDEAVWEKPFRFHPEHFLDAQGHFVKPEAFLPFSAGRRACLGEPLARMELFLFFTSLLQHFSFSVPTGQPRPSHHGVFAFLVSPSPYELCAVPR
Experimental: as §1

[2] = biological target: T5, recombinant human cathepsin E (Homo sapiens, UniProt P14091); assay: Cathepsin E fluorescent substrate kinetic assay; assay type: biochemical; conditions: pH 4.5
T5 construct: purchased R&D Systems
T5 sequence (P14091 54-396): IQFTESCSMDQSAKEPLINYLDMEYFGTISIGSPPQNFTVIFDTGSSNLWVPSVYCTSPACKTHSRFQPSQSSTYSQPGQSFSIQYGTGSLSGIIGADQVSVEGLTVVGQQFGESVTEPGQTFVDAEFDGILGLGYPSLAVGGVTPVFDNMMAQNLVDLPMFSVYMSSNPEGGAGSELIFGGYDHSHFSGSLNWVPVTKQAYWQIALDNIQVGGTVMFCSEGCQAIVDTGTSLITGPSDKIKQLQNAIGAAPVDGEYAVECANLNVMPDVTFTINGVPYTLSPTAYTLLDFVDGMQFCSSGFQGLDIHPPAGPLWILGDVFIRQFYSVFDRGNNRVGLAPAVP
Source text: as §2, §3

IC50 (CYP3A4) | IC50 (CYP2C9) | IC50 [1] | IC50 (CYP2D6) | IC50 [2] | SMILES | in vivo effect (% of control) (in vivo effect)
> 10 µM | > 10 µM | 135 µM | 1 to 10 µM | 97 µM | CC#CCOc1cnc(C(=O)Nc2ccc(F)c([C@@]3(C)N=C(N)O[C@@H]4CCC(F)(F)[C@@H]43)c2)cn1 [Example 1, 5-But-2-ynyloxy-pyrazine-2-carboxylic acid [3-((4S,4aR,7aR)-2-amino-5,5-difluoro-4-methyl-4,4a,5,6,7,7a-hexahydro-cyclopenta[e][1,3]oxazin-4-yl)-4-fluoro-phenyl]-amide] | A (A = less than 50% of control @ 30 mg/kg p.o.)
> 10 µM | > 10 µM | > 200 µM | > 10 µM | 90 µM | C[C@]1(c2cc(NC(=O)c3ccc(C#N)cn3)ccc2F)N=C(N)O[C@@H]2CCC(F)(F)[C@@H]21 [Example 2, 5-Cyano-pyridine-2-carboxylic acid [3-((4S,4aR,7aR)-2-amino-5,5-difluoro-4-methyl-4,4a,5,6,7,7a-hexahydro-cyclopenta[e][1,3]oxazin-4-yl)-4-fluoro-phenyl]-amide] | A (A = less than 50% of control @ 30 mg/kg p.o.)
> 10 µM | > 10 µM | > 200 µM | > 10 µM | > 200 µM | C[C@]1(c2cc(NC(=O)c3ccc(C#N)cn3)ccc2F)N=C(N)O[C@@H]2CCCC(F)(F)[C@@H]21 [Example 8, 5-Cyano-pyridine-2-carboxylic acid [3-((4S,4aR,8aR)-2-amino-5,5-difluoro-4-methyl-4a,5,6,7,8,8a-hexahydro-4H-benzo[e][1,3]oxazin-4-yl)-4-fluoro-phenyl]-amide] | A (A = less than 50% of control @ 30 mg/kg p.o.)
